ChEMBL document CHEMBL5223101, “Evolution of 3-(4-hydroxyphenyl)indoline-2-one as a scaffold for potent and selective anticancer activity” (RSC Med Chem, 2022)

Tests used:
HeLa = test: Anticancer activity against human HeLa cells assessed as cell viability at 1 uM by tryphan blue staining based cell counter analysis relative to control; assay type: functional; conditions: read-out: Activity
HEK-293T = test: Anticancer activity against human HEK293T cells assessed as cell viability at 1 uM by tryphan blue staining based cell counter analysis relative to control; assay type: functional; conditions: read-out: Activity
MCF7 = test: Anticancer activity against human MCF7 cells assessed as cell viability at 1 uM by tryphan blue staining based cell counter analysis relative to control; assay type: functional; conditions: read-out: Activity
MCF-10A = test: Anticancer activity against human MCF-10A cells assessed as cell viability at 1 uM by tryphan blue staining based cell counter analysis relative to control; assay type: functional; conditions: read-out: Activity
BT-474 = test: Anticancer activity against human BT-474 cells assessed as cell viability at 1 uM by tryphan blue staining based cell counter analysis relative to control; assay type: functional; conditions: read-out: Activity
MDA-MB-231 [1] = test: Anticancer activity against human MDA-MB-231 cells assessed as cell viability at 1 uM by tryphan blue staining based cell counter analysis relative to control; assay type: functional; conditions: read-out: Activity
T47D [2] = test: Anticancer activity against human T47D cells assessed as cell viability at 1 uM by tryphan blue staining based cell counter analysis relative to control; assay type: functional; conditions: read-out: Activity
T47D [3] = test: Anticancer activity against human T47D cells assessed as cell proliferation incubated for 4 days by MTS assay; assay type: functional, cell-based; conditions: 96 h
ES-2 = test: Anticancer activity against human ES2 assessed as cell viability at 1 uM by tryphan blue staining based cell counter analysis relative to control; assay type: functional; conditions: read-out: Activity
MDA-MB-231 [4] = test: Anticancer activity against human MDA-MB-231 cells assessed as cell growth inhibition incubated for 24 hrs; assay type: functional, cell-based; conditions: MDA-MB-231, 24 h, pooled result: one value given for 13 cell lines, strains, targets or settings
T47D [5] = test: Anticancer activity against human T47D cells assessed as cell growth inhibition incubated for 24 hrs; assay type: functional, cell-based; conditions: pooled result: one value given for 16 cell lines, strains, targets or settings

Row | SMILES | viability at 1 µM (HeLa) [%] | viability at 1 µM (HEK-293T) [%] | viability at 1 µM (MCF7) [%] | viability at 1 µM (MCF-10A) [%] | viability at 1 µM (BT-474) [%] | viability at 1 µM (MDA-MB-231 [1]) [%] | viability at 1 µM (T47D [2]) [%] | IC50 (T47D [3]) [nM] | viability at 1 µM (ES-2) [%] | IC50 (MDA-MB-231 [4]) [nM] | IC50 (T47D [5]) [nM]
1 | Cc1cccc2c1NC(=O)C2(c1ccc(O)cc1)c1ccc(O)cc1 | < 20 | < 20 | < 20 | < 20 | < 20 | < 20 | < 20 | 15 | < 20 | – | –
2 | O=C1Nc2c(C(F)(F)F)cccc2[C@@]1(c1ccc(O)cc1)c1ccc(OC(F)(F)F)cc1 | – | – | – | – | – | – | – | – | – | 12400 | 34
